Where a SMILES comes first, the peptide text is derived from it. The star is where a group is joined. Cbz = O=C(OCc1ccccc1)*; CH2F = FC*
Tests used:
Type in all cases: cell-based
[1] = system: prominin2; assay: PROM2 mRNA (qPCR) and prominin2 protein (immunoblot) expression in MCF10A cells; conditions: for prominin2 mRNA and protein expression: adherent MCF10A, 2 hrs, 5 μM RSL3, 250 μM H2O2
Procedure: (§1) Biochemical experiments: Immunoblotting and qPCR were performed as described (Brown C W, 2017). Briefly, for immunoblotting, cell lysates were extracted using radioimmunoprecipitation assay (RIPA) buffer (Boston Bioproducts). Extracts were separated by SDS PAGE using the specified antibodies. Immunoprecipitation was performed on lysates isolated using NP-40 buffer (Boston Bioproducts). Lysates were pre-cleared prior to overnight incubation with the primary antibody and protein A agarose beads (Sigma-Aldrich). Immune complexes were separated by SDS PAGE and immunoblotted as described in figure legends. RNA was isolated from cells (BioBasic) and cDNA was generated using the All in One cDNA Synthesis SuperMix (BioScript Solutions). qPCR was performed using a SYBR green master mix (BioScript Solutions). Sequences for primers used were as follows: […]

[2] = system: HSF1; assay: HSF1 mRNA, protein, S326 phosphorylation and nuclear localization in MCF10A cells; conditions: for time after treatment at which the increase in HSF1 mRNA peaked: 25 uM 4HNE or 5 uM RSL3; for expression of HSF1 mRNA by qPCR: 25 uM 4HNE or 5 uM RSL3, 0 to 120 minutes; for HSF1 protein expression and phosphorylation at S326: after 60 minutes of exposure
Procedure: as §1
(§2) Immunofluorescence microscopy: For adherent cells, 8 well chamber slides (Mattek) were coated with 1 μg/mL laminin (Invitrogen). Cells (5.0×10^4 per well) were plated overnight and then treated for two hours with either DMSO or RSL3, fixed in 4% paraformaldehyde and permeabilized in 0.1% Triton (JT Baker). Slides were blocked in 0.5% BSA (Boston Bioproducts), incubated in antibody overnight at 4° C., washed in PBS and incubated in secondary antibody for 1 hr at room temperature. Slides were washed and mounted in Vectashield with DAPI (Vector Labs). For ECM-detached experiments, cells were trypsinized and plated (5.0×10^5 per well) in 60 mm low-adherent plates (Sumitomo Bakelite) for two hr, collected and spun down prior to being fixed and stained as described above. Slides were imaged on a Zeiss or a Nikon A-1 confocal microscope.

[3] = system: HSF1; assay: as above; conditions: after 60 minutes of exposure
[4] = system: Hs578t cells; assay: Survival of adherent cells in response to GPX4 inhibition (crystal violet); conditions: for sensitivity to compound in prominin2 knock-down cells compared to control cells: prominin2 siRNA 48 hours, compound 24 hrs
Procedure: (§3) Cell-based assays: Assays to assess survival in response to matrix detachment were performed as described (Brown C W, 2017). To assay survival in response to GPX4 inhibition, adherent cells in 96 well plates (1.0×10^4 per well) were treated with either DMSO, RSL3, ML210, FIN56 or erastin for 24 hrs with and without ferrostatin-1 or DFO. Subsequently, cells were fixed in 4% paraformaldehyde (Boston BioProducts), stained with crystal violet (Sigma) and read on a microplate reader (Beckman Colter) at absorbance 595. Absorbances were normalized to DMSO.

[5] = system: MCF10A cells; assay: as above; conditions: for sensitivity to compound in prominin2 knock-down cells compared to control cells: prominin2 siRNA 48 hours, compound 24 hrs
Procedure: as §3

[6] = system: MDA-MB-231 cells; assay: as above; conditions: for cell death in response to compound with exogenous prominin2 expression: MDA-MB-231, prominin2 expression construct vs vector control
Procedure: as §3

[7] = system: prominin2; assay: PROM2 mRNA (qPCR) and prominin2 protein (immunoblot) expression in Hs578t cells; conditions: adherent Hs578t, 2 hrs; 5 μM RSL3, 250 μM H2O2
Procedure: as §1

[8] = system: prominin2; assay: PROM2 mRNA (qPCR) and prominin2 protein (immunoblot) expression in MDA-MB-231 cells; conditions: adherent MDA-MB-231, RSL3 2 hrs
Procedure: as §1

[9] = system: prominin1 (CD133); assay: PROM1 expression by qPCR; conditions: MCF10A and Hs578t cells, 5 μM RSL3, 2 hrs (FIG. 8A)
Procedure: as §1

[10] = system: Hs578t cells; assay: Total free iron (Iron Assay Kit)
Procedure: (§4) Total free iron was quantified using the Iron Assay Kit (Abcam) per manufacturer's specifications. Briefly, adherent cells in 10 cm plates (1.0×10^6/well) were treated with either DMSO or RSL3 for 2 hrs, lysed and supernatant was reduced using the provided iron reducer before the mixture was reacted with an iron probe. Plates were read at 595 nm and total iron concentration was obtained using an iron standard curve.

[11] = system: MCF10A cells; assay: Total free iron (Iron Assay Kit)
Procedure: as §4

[12] = system: MDA-MB-231 cells; assay: Total free iron (Iron Assay Kit); conditions: MDA-MB-231 vector control, RSL3 2 hrs; prevented by prominin2 expression
Procedure: as §4

[13] = system: MCF10A cells; assay: Multivesicular body formation (TSG101 immunofluorescence, TEM)
Procedure: as §2
Transmission Electron Microscopy: Adherent siControl and siProminin2 cells were treated with DMSO or RSL3 (5 μM) for two hr. ECM-detached siControl and siProminin2 cells were maintained for 2 hrs in low-adherence plates. All cells were fixed by adding 2.5% glutaraldehyde (v/v) in 0.1 M Na cacodylate buffer (pH 7.2) and processed for TEM. The samples were examined on a FEI Tecnai 12 BT transmission electron microscope using 100 Kv accelerating voltage. Images were captured using a Gatan TEM CCD camera.

[14] = system: Hs578t cells; assay: Multivesicular body formation (TSG101 immunofluorescence); conditions: RSL3 2 hrs
Procedure: as §2

[15] = system: MCF10A and Hs578t cells; assay: Exosome isolation by ultracentrifugation (protein, ICP-MS iron)
Procedure: Exosome isolation: Cells were cultured for 24 hrs in their respective media containing extracellular vesicle (EV) free serum and treated with RSL3 for 24 hours. Culture supernatants were centrifuged at 4° C. at 1000 RPM for 5 min, 3000 RPM for 10 min, 4000 RPM for 30 min prior to ultracentrifugation at 22,000 RPM for 140 min at 4° C. Pellets were resuspended in cold PBS and centrifuged again under the same conditions. For immunoblotting, pellets were lysed in RIPA buffer, centrifuged at 10,000 RPM for 15 min and protein concentration was determined by Bradford Assay (BioRad). For TEM, PBS was removed and 20 μL of the exosome preparation was fixed and processed. For ICP-mass spec, exosome-containing pellet was resuspended in 0.5 mL PBS and centrifuged in a speed-vac at 45° C. Samples were sent to the UMASS Mass Spectrometry Core where they were digested in 100 μL HNO3, heated to 65° C. for 20 min and diluted to 2 mL with ddH2O before analysis.

[16] = system: Hs578t cells; assay: Survival in response to matrix (ECM) detachment; conditions: 24 hrs, ferrostatin-1 (2 μM), ZVAD-fmk (25 μM), deferoxamine
Procedure: as §3

[17] = system: MCF10A cells; assay: Survival in response to matrix (ECM) detachment; conditions: 24 hrs, ferrostatin-1 (2 μM), ZVAD-fmk (25 μM), deferoxamine
Procedure: as §3

CCCCCC(O)/C=C/C=O (centres unmarked) [4HNE, 4-hydroxynonenal]
PROM2 transcription ([1]; mechanism dependent upon HSF1, cell line not named at b183): stimulates PROM2 transcription
time after treatment at which the increase in HSF1 mRNA peaked [2]: 15 min
expression of HSF1 mRNA by qPCR [2]: significant increase
HSF1 protein expression and phosphorylation at S326 [2]: increased HSF1 protein expression levels as well as phosphorylation at S326
HSF1 expression and nuclear localization [3]: increased

Cc1ccc(-n2nc(C(C)(C)C)cc2NC(=O)Nc2ccc(OCCN3CCOCC3)c3ccccc23)cc1 [BIRB]
induction and phosphorylation of HSF1 following 4HNE or RSL3 treatment ([2]; 10 uM BIRB pretreatment): prevented the induction and phosphorylation of HSF1
increase in HSF1 expression and nuclear localization, treatment prior to 4HNE or RSL3 ([2]; 10 uM BIRB pretreatment 15 minutes): significantly reduced the increase in expression and nuclear localization
4HNE- or RSL3-driven increase in HSF1 expression on p38 inhibition ([2]; pre-treated with 10 uM BIRB, after 30 minutes of treatment): reduced the 4HNE- or RLS3-driven increase in HSF1 to basal levels

O=S(=O)(NC1CCCCC1)c1ccc2c(c1)C(=NO)c1cc(S(=O)(=O)NC3CCCCC3)ccc1-2 [FIN56]
sensitivity to compound in prominin2 knock-down cells compared to control cells ([4]; Hs578t): significant increase in sensitivity
sensitivity to compound in prominin2 knock-down cells compared to control cells ([5]; MCF10A): significant increase in sensitivity
cell death in response to compound with exogenous prominin2 expression [6]: sufficient to inhibit cell death

O=C(/C=C/c1ccc(/C=C/C(=O)Nc2ccc(C3=NCCN3)cc2)cc1)Nc1ccc(C2=NCCN2)cc1 [GW4869]
sensitivity of cells to RSL3 on inhibition of exosome release ([4]; Hs578t, RSL3 (5 μM) and GW4869 (20 μM), 24 hrs): increased the sensitivity
sensitivity of cells to RSL3 on inhibition of exosome release ([5]; MCF10A, RSL3 (5 μM) and GW4869 (20 μM), 24 hrs): increased the sensitivity

OO [H2O2]
prominin2 mRNA and protein expression [1]: did not increase prominin2 expression
prominin2 mRNA and protein expression [7]: did not increase prominin2 expression

Cl.N [NH4Cl]
effect on cell survival following GPX4 inhibition ([4]; Hs578t, 20 mM NH4Cl pre-treatment 60 min, then with RSL3 24 hrs (FIG. 10D)): had no effect on cell survival

COC(=O)c1ccc([C@@H]2c3[nH]c4ccccc4c3C[C@@H](C(=O)OC)N2C(=O)CCl)cc1 [RSL3]
sensitivity to compound in prominin2 knock-down cells compared to control cells ([4]; Hs578t): significant increase in sensitivity
RSL3 concentrations at which cells were resistant to RSL3-induced cell death ([4]; adherent Hs578t, 24 hrs, FIG. 1F): up to 2.5
sensitivity to compound in prominin2 knock-down cells compared to control cells ([5]; MCF10A): significant increase in sensitivity
RSL3 concentrations at which cells were resistant to RSL3-induced cell death ([5]; adherent MCF10A, 24 hrs, FIG. 1F): up to 2.5
cell death in response to compound with exogenous prominin2 expression [6]: sufficient to inhibit cell death
RSL3 concentrations by which cells were killed ([6]; adherent MDA-MB-231, 24 hrs, FIG. 1F): ≥ 0.5 µM
prominin2 mRNA and protein expression [1]: increased prominin2 mRNA and protein expression
prominin2 mRNA and protein expression [7]: increased prominin2 mRNA and protein expression
induction of prominin2 [8]: did not induce prominin2
expression of prominin1 (CD133) [9]: not altered significantly
time after treatment at which the increase in HSF1 mRNA peaked [2]: 15 min
expression of HSF1 mRNA by qPCR [2]: significant increase
HSF1 protein expression and phosphorylation at S326 [2]: increased HSF1 protein expression levels as well as phosphorylation at S326
free iron concentration, RSL3-treated vs control cells ([10]; 5 μM RSL3, 2 hrs): no significant difference
concentration of free iron following RSL3 treatment when either prominin2 or both FTH1 and FTL were silenced ([10]; siRNA 48 hrs, RSL3 2 hrs): increase
free iron concentration, RSL3-treated vs control cells ([11]; 5 μM RSL3, 2 hrs): no significant difference
concentration of free iron following RSL3 treatment when either prominin2 or both FTH1 and FTL were silenced ([11]; siRNA 48 hrs, RSL3 2 hrs): increase
free iron in response to RSL3 in control cells [12]: increase in iron
TSG101-positive structures vs vehicle control-treated cells ([13]; RSL3 2 hrs): more TSG101-positive structures
MVBs per cell by TEM vs control cells ([13]; RSL3, effect not observed in prominin2-silenced cells): significantly more MVBs per cell
TSG101-positive structures vs vehicle control-treated cells [14]: more TSG101-positive structures
protein in the exosome preparation ([15]; 1 μM RSL3, 24 hours, exosomal protein in control cells not detected): significant amount of protein
iron in exosomes by ICP-MS ([15]; exosomes harvested from RSL3-treated cells): 3400 ng per exosome collection sample
HSF1 expression and nuclear localization [3]: increased

COC(=O)C[C@H](NC(=O)[C@H](C)NC(=O)[C@@H](NC(=O)OCc1ccccc1)C(C)C)C(=O)CF [ZVAD-fmk] (Cbz-Val-Ala-Asp(OMe)-CH2F)
rescue of cell viability of ECM-detached prominin2-silenced cells by co-treatment [16]: not
rescue of cell viability of ECM-detached prominin2-silenced cells by co-treatment [17]: not

C#Cc1cccc(Nc2ncnc3cc(OCCOC)c(OCCOC)cc23)c1 [erlotinib]
sensitivity to RSL3 on co-treatment with other therapeutics ([5]; MCF10A, 100 nM Dasatinib or 25 uM Erlotinib with RSL3, 24 hours): did not significantly improve sensitivity

CCOC(=O)c1ccc(NC2CCCCC2)c(N)c1 [ferrostatin-1]
rescue of cell death triggered by GPX4 inhibition in FTH1 and FTL knock-down cells ([4]; Hs578t, RSL3 24 hrs, 100 uM deferoxamine): rescued
rescue of loss of cell viability in prominin2-depleted cells ([4]; Hs578t, RSL3 (5 μM) and ferrostatin-1 (2 μM), 24 hrs): completely rescued
rescue of cell death triggered by GPX4 inhibition in FTH1 and FTL knock-down cells ([5]; MCF10A, RSL3 24 hrs, 100 uM deferoxamine): rescued
rescue of loss of cell viability in prominin2-depleted cells ([5]; MCF10A, RSL3 (5 μM) and ferrostatin-1 (2 μM), 24 hrs): completely rescued
rescue of RSL3-induced cell death in cells with diminished TSG101 expression ([5]; MCF10A, TSG101 siRNA 48 hours, RSL3 and ferrostatin-1 24 hrs (FIG. 4C)): rescued
rescue of cell viability of ECM-detached prominin2-silenced cells by co-treatment [16]: rescued
rescue of cell viability of ECM-detached prominin2-silenced cells by co-treatment [17]: rescued

From US20210380988A1, “Reducing Prominin2-Mediated Resistance to Ferroptotic Cell Death” (University of Massachusetts, priority 2020, published 2021)
